Results taken from patent publication US20220030867A1 (priority 2018, published 2022).

Assays:
[1] = tested on: Magnaporthe grisea (Pyricularia oryzae); assay: whole plant or invertebrate; format: in vivo, Magnaporthe grisea on rice leaf segments cv. Ballila; conditions: foliar, read-out: control of Magnaporthe grisea
[2] = tested on: Fusarium culmorum; assay: whole plant or invertebrate; format: in vivo, Fusarium culmorum on wheat spikelets cv. Monsun; conditions: in Triticum aestivum, read-out: control of Fusarium culmorum
[3] = tested on: Magnaporthe grisea (Pyricularia oryzae); assay: microbe, parasite or virus in culture; format: cell-based; conditions: read-out: control of Magnaporthe grisea
[4] = tested on: Sclerotinia sclerotiorum; assay: Sclerotinia sclerotiorum / liquid culture (cottony rot); format: cell-based; conditions: growth inhibition photometrically 3-4 days after application, vs untreated control
Experimental: Sclerotinia sclerotiorum/Liquid Culture (Cottony Rot)
Mycelia fragments of a newly grown liquid culture of the fungus are directly mixed into nutrient broth (Vogels broth). After placing a (DMSO) solution of test compound into a microtiter plate (96-well format) the nutrient broth containing the fungal material is added. The test plates are incubated at 24° C. and the inhibition of growth is determined photometrically 3-4 days after application.

[5] = tested on: Glomerella lagenarium (Colletotrichum lagenarium); assay: Glomerella lagenarium (Colletotrichum lagenarium) / liquid culture (anthracnose); format: cell-based; conditions: Colletotrichum orbiculare, growth inhibition photometrically 3-4 days after application, vs untreated control
Experimental: (§1) Conidia of the fungus from cryogenic storage are directly mixed into nutrient broth (PDB potato dextrose broth). After placing a (DMSO) solution of test compound into a microtiter plate (96-well format), the nutrient broth containing the fungal spores is added. The test plates are incubated at 24° C. and the inhibition of growth is measured photometrically 3-4 days after application.

[6] = tested on: Botryotinia fuckeliana (Botrytis cinerea); assay: Botryotinia fuckeliana (Botrytis cinerea) / liquid culture (gray mould); format: cell-based; conditions: growth inhibition photometrically 3-4 days after application, vs untreated control
Experimental: Botryotinia fuckeliana (Botrytis cinerea)/Liquid Culture (Gray Mould)
as §1, with “(Vogels” for “(PDB potato dextrose”, “determined” for “measured”

[7] = tested on: Fusarium culmorum; assay: microbe, parasite or virus in culture; format: cell-based; conditions: read-out: control of Fusarium culmorum
[8] = tested on: Monographella nivalis (Microdochium nivale); assay: Monographella nivalis (Microdochium nivale) / liquid culture (foot rot cereals); format: cell-based; conditions: growth inhibition photometrically 4-5 days after application, vs untreated control
Experimental: Monographella nivalis (Microdochium nivale)/Liquid Culture (Foot Rot Cereals)
as §1, with “determined” for “measured”, “4-5” for “3-4”

SMILES	pest or weed control at 200 ppm [1] [%]	pest or weed control at 200 ppm [2] [%]	inhibition of growth at 200 ppm [3] [%]	inhibition of growth at 20 ppm [4] [%]	melting point [°C]	inhibition of growth at 200 ppm [5] [%]	inhibition of growth at 200 ppm [6] [%]	inhibition of growth at 200 ppm [7] [%]	inhibition of growth at 200 ppm [8] [%]
C#CCC(C)(Cc1ccccc1)C(=O)Nc1cc2cccc(F)c2nc1C (centres unmarked) [Compound E-2, 2-benzyl-N-(8-fluoro-2-methyl-3-quinolyl)-2-methyl-pent-4-ynamide]	≥ 80	≥ 80	≥ 80	–	–	–	–	–	–
C=C(Cl)CC(Cc1ccccc1)C(=O)Nc1cnc2c(F)cccc2c1C (centres unmarked) [Compound E-5, 2-benzyl-4-chloro-N-(8-fluoro-4-methyl-3-quinolyl)pent-4-enamide]	–	≥ 80	≥ 80	≥ 80	53 to 58	–	–	–	–
C=C(Cl)CC(Cc1ccccc1)C(=O)Nc1cnc2c(F)cccc2c1 (centres unmarked) [Compound E-6, 2-benzyl-4-chloro-N-(8-fluoro-3-quinolyl)-pent-4-enamide]	≥ 80	–	≥ 80	–	166 to 168	–	–	–	–
C=CCC(C)(Cc1ccccc1)C(=O)Nc1cnc2c(F)cccc2c1 (centres unmarked) [Compound E-78, 2-benzyl-N-(8-fluoro-3-quinolyl)-2-methyl-pent-4-enamide]	–	≥ 80	≥ 80	–	146 to 149	–	–	–	–
Cc1c(NC(=O)C(C)(Cc2ccccc2)CC(C)C)cnc2c(F)cccc12 (centres unmarked) [Compound E-84, 2-benzyl-N-(8-fluoro-4-methyl-3-quinolyl)-2,4-dimethyl-pentanamide]	–	≥ 80	≥ 80	≥ 80	73 to 79	–	–	–	–
Cc1nc2c(F)cccc2cc1NC(=O)C(C)(Cc1ccccc1)CC(C)C (centres unmarked) [Compound E-86, 2-benzyl-N-(8-fluoro-2-methyl-3-quinolyl)-2,4-dimethyl-pentanamide]	–	≥ 80	≥ 80	≥ 80	–	–	–	–	–
C=C(C)CC(Cc1ccccc1)C(=O)Nc1cnc2c(F)cccc2c1 (centres unmarked) [Compound E-94, 2-benzyl-N-(8-fluoro-3-quinolyl)-4-methyl-pent-4-enamide]	–	–	≥ 80	–	170 to 172	–	–	–	–
CC(C)(C)CC(Cc1ccccc1)C(=O)Nc1cnc2c(F)cccc2c1 (centres unmarked) [Compound E-98, 2-benzyl-N-(8-fluoro-3-quinolyl)-4,4-dimethyl-pentanamide]	≥ 80	–	≥ 80	–	–	≥ 80	≥ 80	≥ 80	–
Cc1nc2c(F)cccc2cc1NC(=O)C(C)(Cc1ccccc1)CC1(C)CC1 (centres unmarked) [Compound E-99, 2-benzyl-N-(8-fluoro-2-methyl-3-quinolyl)-2-methyl-3-(1-methylcyclopropyl)propanamide]	≥ 80	≥ 80	≥ 80	–	151 to 152	≥ 80	≥ 80	≥ 80	–
Cc1c(NC(=O)C(C)(Cc2ccccc2)CC2(C)CC2)cnc2c(F)cccc12 (centres unmarked) [Compound E-100, 2-benzyl-N-(8-fluoro-4-methyl-3-quinolyl)-2-methyl-3-(1-methylcyclopropyl)propanamide]	≥ 80	≥ 80	≥ 80	≥ 80	163 to 164	≥ 80	≥ 80	≥ 80	–
Cc1c(NC(=O)[C@@](C)(Cc2ccccc2)CC(C)C)cnc2c(F)cccc12 [Compound F-4, (2R)-2-benzyl-N-(8-fluoro-4-methyl-3-quinolyl)-2,4-dimethyl-pentanamide]	≥ 80	≥ 80	≥ 80	≥ 80	–	–	–	–	–
CC(C)C[C@@](C)(Cc1ccccc1)C(=O)Nc1cnc2c(F)cccc2c1 [Compound F-20, (2S)-2-benzyl-N-(8-fluoro-3-quinolyl)-2,4-dimethyl-pentanamide]	–	≥ 80	≥ 80	≥ 80	–	–	–	–	–
C=C(C)C[C@@](C)(Cc1ccccc1)C(=O)Nc1cnc2c(F)cccc2c1 [Compound F-21, (2S)-2-benzyl-N-(8-fluoro-3-quinolyl)-2,4-dimethyl-pent-4-enamide]	≥ 80	≥ 80	≥ 80	≥ 80	–	–	–	–	–
C=C(Cl)C[C@H](Cc1ccccc1)C(=O)Nc1cc2cccc(F)c2nc1C [Compound F-26, (2S)-2-benzyl-4-chloro-N-(8-fluoro-2-methyl-3-quinolyl)pent-4-enamide]	≥ 80	≥ 80	≥ 80	≥ 80	–	≥ 80	≥ 80	≥ 80	–
Cc1nc2c(F)cccc2cc1NC(=O)[C@](C)(Cc1cccc(F)c1)CC(C)C [Compound F-29, (2S)-N-(8-fluoro-2-methyl-3-quinolyl)-2-[(3-fluorophenyl)methyl]-2,4-dimethyl-pentanamide]	≥ 80	–	≥ 80	≥ 80	–	≥ 80	≥ 80	–	≥ 80
Cc1nc2c(F)cccc2cc1NC(=O)[C@@](C)(Cc1cccc(F)c1)CC(F)(F)F [Compound F-31, (2S)-4,4,4-trifluoro-N-(8-fluoro-2-methyl-3-quinolyl)-2-[(3-fluorophenyl)methyl]-2-methyl-butanamide]	≥ 80	≥ 80	–	≥ 80	–	≥ 80	≥ 80	–	–
Cc1nc2c(F)cccc2cc1NC(=O)[C@](C)(Cc1cccc(F)c1)CC(F)(F)F [Compound F-32, (2R)-4,4,4-trifluoro-N-(8-fluoro-2-methyl-3-quinolyl)-2-[(3-fluorophenyl)methyl]-2-methyl-butanamide]	≥ 80	≥ 80	≥ 80	≥ 80	–	≥ 80	≥ 80	≥ 80	–
Cc1nc2c(F)cccc2cc1NC(=O)[C@H](Cc1ccccc1)CC(C)(C)C [Compound F-33, (2S)-2-benzyl-N-(8-fluoro-2-methyl-3-quinolyl)-4,4-dimethyl-pentanamide]	–	–	≥ 80	–	–	≥ 80	≥ 80	≥ 80	–
Cc1nc2c(F)cccc2cc1NC(=O)[C@H](Cc1ccccc1)CC1(C)CC1 [Compound F-37, (2S)-2-benzyl-N-(8-fluoro-2-methyl-3-quinolyl)-3-(1-methylcyclopropyl)propanamide]	–	≥ 80	≥ 80	–	–	≥ 80	≥ 80	≥ 80	–
Cc1c(NC(=O)[C@H](Cc2ccccc2)CC2(C)CC2)cnc2c(F)cccc12 [Compound F-39, (2S)-2-benzyl-N-(8-fluoro-4-methyl-3-quinolyl)-3-(1-methylcyclopropyl)propanamide]	–	–	≥ 80	–	–	≥ 80	≥ 80	≥ 80	–
C=C(Cl)C[C@](C)(Cc1ccccc1)C(=O)Nc1cnc2c(F)cccc2c1C [Compound F-41, (2S)-2-benzyl-4-chloro-N-(8-fluoro-4-methyl-3-quinolyl)-2-methyl-pent-4-enamide]	≥ 80	≥ 80	–	≥ 80	–	≥ 80	≥ 80	–	≥ 80
C=C(Cl)C[C@@](C)(Cc1ccccc1)C(=O)Nc1cc2cccc(F)c2nc1C [Compound F-43, (2R)-2-benzyl-4-chloro-N-(8-fluoro-2-methyl-3-quinolyl)-2-methyl-pent-4-enamide]	≥ 80	≥ 80	–	–	–	≥ 80	≥ 80	–	–
